Measurements published in ChEMBL document CHEMBL1201862, “PubChem BioAssay data set” (2004).
Calls of active or inactive are those of the source. Rule as the data show it, for most assays here: actives have a measured EC50 and inactives only a lower limit.

Tests used:
[1] = biological target: T1, Heat shock factor protein 1 (Mus musculus, UniProt P38532); experiment: enhancement of HSF1-driven luciferase signal – cell-based, NIH3T3, luminescence, dose retest, confirmation (AID 435004); type: functional;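 also: stress induced by proteasome inhibitor MG132 added 30 min after compound; luciferase reporter driven by HSF1 response element in NIH3T3 cells; actives raise luminescence as potentiators of the MG132 stress response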
T1 sequence (P38532 whole entry): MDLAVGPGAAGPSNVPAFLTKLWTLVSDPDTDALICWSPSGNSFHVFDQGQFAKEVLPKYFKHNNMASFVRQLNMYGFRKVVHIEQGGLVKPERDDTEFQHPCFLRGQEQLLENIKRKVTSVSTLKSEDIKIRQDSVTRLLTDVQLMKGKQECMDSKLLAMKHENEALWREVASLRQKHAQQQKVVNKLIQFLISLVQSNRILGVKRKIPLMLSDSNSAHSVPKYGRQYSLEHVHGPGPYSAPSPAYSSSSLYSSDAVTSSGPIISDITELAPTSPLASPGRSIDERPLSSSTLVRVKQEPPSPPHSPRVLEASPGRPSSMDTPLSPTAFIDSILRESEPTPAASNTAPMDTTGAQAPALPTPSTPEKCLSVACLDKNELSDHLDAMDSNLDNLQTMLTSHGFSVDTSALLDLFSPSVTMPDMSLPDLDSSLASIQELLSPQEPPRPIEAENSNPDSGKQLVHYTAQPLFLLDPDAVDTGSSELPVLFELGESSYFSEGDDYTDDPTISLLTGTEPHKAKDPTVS

[2] = biological target: T2, Polyadenylate-binding protein 1 (Homo sapiens, UniProt P11940); experiment: MLLE domain peptide-binding blockers, IC50 – biochemical, fluorescence polarization, FITC-PAM2 peptide, dose response (AID 602259); type: functional; conditions: read-out: IC50_Mean
[3] = biological target: T2, Polyadenylate-binding protein 1; experiment: MLLE binding blockers, Cy5 peptide tracer – biochemical, fluorescence polarization, Cy5-PAM2 peptide, secondary, miRNA deadenylation inhibitor project, dose response (AID 602260); type: functional; conditions: read-out: IC50_Mean
Large T antigen = Large T antigen (Simian virus 40, UniProt P03070); type: functional, Betapolyomavirus macacae;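 also: Confirmatory-stage PubChem screen for compounds that inhibit SV40 T antigen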
cells = type: functional
[4] = luciferase reporter signal suppression in cells – H4 neuroglioma cells, luminescence, dose response (AID 1990); type: functional, cell-based
[5] = NIH-3T3 fibroblast cytotoxicity, dose response, cytotoxicity control, cell-based, fluorescence, Alamar Blue, secondary assay (AID 2327); type: functional;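 also: NIH-3T3 mouse fibroblasts cultured with fluconazole at 8 µg/mL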
[6] = fluconazole-exposed Candida albicans growth modulators – fluorescence, retest, confirmation (AID 2467); type: functional, cell-based
[7] = alpha-synuclein stem-loop luciferase translation blockers – H4 neuroglioma cells, luminescence, confirmation (AID 1988); type: functional, cell-based
[8] = Luminescence Cell-Based Dose Response HTS to Identify Inhibitors of 5'UTR Stem-Loop Driven Prion Protein mRNA Translation in H4 Neuroglioblastoma Cells. [Related pubchem assays: 1827 (Project Summary), 1813 (Primary HTS)]; type: functional

T2 sequence (P11940 whole entry, the tested form may be a part): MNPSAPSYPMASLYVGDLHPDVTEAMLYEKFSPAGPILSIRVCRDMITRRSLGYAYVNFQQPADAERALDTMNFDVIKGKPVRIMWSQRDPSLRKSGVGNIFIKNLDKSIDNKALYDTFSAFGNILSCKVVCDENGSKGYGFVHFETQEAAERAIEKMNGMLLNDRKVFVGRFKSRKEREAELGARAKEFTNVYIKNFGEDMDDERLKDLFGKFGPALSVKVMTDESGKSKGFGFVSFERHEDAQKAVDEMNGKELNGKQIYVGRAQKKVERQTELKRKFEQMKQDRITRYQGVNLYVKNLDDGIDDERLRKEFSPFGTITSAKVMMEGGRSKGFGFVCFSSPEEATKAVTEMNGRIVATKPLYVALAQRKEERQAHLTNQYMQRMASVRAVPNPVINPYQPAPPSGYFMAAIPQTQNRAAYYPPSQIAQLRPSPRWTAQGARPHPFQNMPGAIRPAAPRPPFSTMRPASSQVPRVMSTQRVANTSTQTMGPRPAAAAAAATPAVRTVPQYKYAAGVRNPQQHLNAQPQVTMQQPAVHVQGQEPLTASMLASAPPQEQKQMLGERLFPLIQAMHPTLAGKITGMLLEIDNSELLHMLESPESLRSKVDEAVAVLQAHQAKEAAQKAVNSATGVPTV
Large T antigen, sequence (P03070 whole entry): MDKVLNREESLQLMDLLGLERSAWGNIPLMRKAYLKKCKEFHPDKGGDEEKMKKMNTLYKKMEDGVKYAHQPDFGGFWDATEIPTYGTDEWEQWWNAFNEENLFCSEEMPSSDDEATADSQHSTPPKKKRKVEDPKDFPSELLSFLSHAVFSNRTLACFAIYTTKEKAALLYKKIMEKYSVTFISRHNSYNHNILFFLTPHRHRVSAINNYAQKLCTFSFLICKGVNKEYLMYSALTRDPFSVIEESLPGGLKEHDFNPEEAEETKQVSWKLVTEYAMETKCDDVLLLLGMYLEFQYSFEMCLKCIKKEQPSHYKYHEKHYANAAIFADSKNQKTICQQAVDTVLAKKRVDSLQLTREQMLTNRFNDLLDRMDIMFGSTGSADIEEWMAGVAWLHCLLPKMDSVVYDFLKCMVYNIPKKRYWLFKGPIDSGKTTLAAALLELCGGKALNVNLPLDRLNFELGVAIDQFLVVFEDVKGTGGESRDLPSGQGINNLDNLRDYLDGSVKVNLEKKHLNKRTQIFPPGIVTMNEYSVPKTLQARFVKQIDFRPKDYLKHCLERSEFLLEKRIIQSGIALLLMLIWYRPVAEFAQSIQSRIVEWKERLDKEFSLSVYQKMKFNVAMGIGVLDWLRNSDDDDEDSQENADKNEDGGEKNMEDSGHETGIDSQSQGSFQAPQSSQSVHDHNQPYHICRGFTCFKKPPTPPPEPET

Structure (SMILES): Cc1c(NC(=O)C(C)N2CC(C)OC(C)C2)c(=O)n(-c2ccccc2)n1C (centres undefined)
- EC50 [1]: > 260 µM (inactive)

Structure (SMILES): NC(=O)CN(c1ccccc1)C1SC(=O)N(Cc2ccccc2)C1=O (centres undefined)
- IC50 [2]: > 66 µM (inactive)
- IC50 [3]: > 66 µM (inactive)

Structure (SMILES): O=C(Nc1cccc(Cl)c1)C1CCCN(S(=O)(=O)c2ccc(F)cc2)C1 (centres undefined)
- EC50 [1]: > 260 µM (inactive)

Structure (SMILES): O=C1/C(=N/n2cnnc2)c2ccccc2N1Cc1ccccc1
- IC50 (Large T antigen): 24.8 µM (active)

Structure (SMILES): COc1cc(/C=N/NC(=O)c2ccoc2C)cc(OC)c1O
- IC50 (Large T antigen): 33.9 µM (active)

Structure (SMILES): Oc1ccc(/C=N/Nc2ccc(Cl)nn2)cc1O
- IC50 (Large T antigen): 8.16 µM (active)

Structure (SMILES): CC(C)NS(=O)(=O)c1ccc(NC(=S)NC(=O)c2cccc([N+](=O)[O-])c2)cc1
- IC50 [2]: > 66 µM (inactive)
- IC50 [3]: > 66 µM (inactive)

Structure (SMILES): Cc1ccccc1-n1nnc2c(=O)oc3ccccc3c21
- IC50 (cells): 1.13 µM (active)
- EC50 [1]: > 260 µM (inactive)

Structure (SMILES): CCCOC(c1ccccc1)(c1ccc(C(F)(F)F)cc1)C(Oc1nc(C)cc(C)n1)C(=O)O (centres undefined)
- EC50 [4]: 12.4 µM (active)
- EC50 [5]: > 160 µM (inactive)
- EC50 [6]: 1.91 µM (active)
- EC50 [7]: 8.08 µM (active)
- EC50 [8]: 11.4 µM (active)

Structure (SMILES): CN1CCN(/N=C/c2c[nH]c3ccccc23)CC1
- IC50 (Large T antigen): 15.4 µM (active)

Structure (SMILES): COc1ccc(C)cc1N=C(S)NNC(=O)c1c(Br)cnn1C
- EC50 [5]: > 150 µM (inactive)
- EC50 [6]: 1.45 µM (active)
